The results in this text go back to patent US5270308A, “1,3-benzoxazine derivatives, their production and use” (Takeda Chemical Industries, Ltd., priority 1990, dated 1993).

Structures are written as SMILES.

Assay [1] relates to Rat Aorta Sample (constriction by KCl). Kind of assay: Vasorelaxation activity in rat aorta sample: effect on constriction caused by potassium chloride (KCl). Type of assay: cell-based, Male Wister rats. The conditions noted are these: KCl (80 mM), rat aorta ring, read-out: constriction inhibitory ratio (%). The method, then:
(§1) Vasorelaxation Activity in Rat Aorta Sample
Effect on Relaxation Caused by Potassium Chloride (KCl)
Method: According to the same manner as that described in Experiment 1, this experiment was carried out except that KCl (80 mM) was used instead of TEA and Ba.
Result: The results are shown in Table 4 in terms of the inhibitory ratio of the test compound.

In assay [2] the test system is spontaneously hypertensive rat. Briefly: Hypotensive activity in spontaneously hypertensive rats. The conditions noted are these: po, orally, conscious spontaneously hypertensive rat, male, 20 to 23 weeks old, read-out: maximum effect (%) (mean ratio of maximum decrease in the blood pressure). Type of assay: in vivo. As for the experimental part:
Hypotensive Activity in Rats
Method: A spontaneously hypertensive rat (male, 20 to 23 weeks old) was operated in advance for retaining a cannula for blood pressure measurement in the left femoral artery. The experiment was carried out for the rat when waking on the next day after the operation. The cannula was connected with a transducer (Specrtramed) upon the experiment and the blood pressure was measured (Nippon Koden, Japan). A test compound was suspended in gum arabic and the suspension was administered orally.

The subject of assay [3] is Rat Aorta Sample (constriction by TEA and Ba). Kind of assay: Vasorelaxation activity in rat aorta sample: effect on constriction caused by tetraethylammonium chloride (TEA) and barium chloride (Ba). Type of assay: cell-based, Male Wister rats. As to conditions: TEA (30 to 45 mM) and Ba (0.3 mM), rat aorta ring, read-out: constriction inhibitory ratio (%). The method, then:
as §1
Effect on Relaxation Caused by Tetraethylammonium Chloride (TEA) and Barium Chloride (Ba)
Method: Male Wister rats (10 to 13 weeks old) were used for the experiment. After dehematization, the aorta was excised and a ring sample (5 mm) was prepared. The sample was suspended in a bath filled with oxygenated (95% O2 -5% CO2) Krebs solution (36° C.). The ring sample was fixed at one end and the other end was connected to a transducer (Nippon Koden, Japan) for recording tension and the tension was measured. After a stabilization period of 1 hour, TEA (30 to 45 mM) and Ba (0.3 mM) were added to the bath to cause vasoconstriction. After the constriction has reached a steady state (after about 15 minutes), a test compound was added to the bath and its relaxation activity was measured.
Result: The results are shown in Table 3 in terms of the inhibitory ratio of the test compound.

As for `CC1(C)N=C(c2cccc[n+]2[O-])c2cc(C(F)(F)F)ccc2O1` [Compound 75, 2-(6-trifluoromethyl-2,2-dimethyl-2H-1,3-benzoxazin-4-yl)pyridine N-oxide], in assay [1], the inhibition at 1 µM is -2%, the inhibition at 3 µM came to 1% and the inhibition at 10 µM turned out to be 2%. For the same molecule, in assay [2], the inhibition in vivo at 1 mg/kg was found to be 54%. Moreover, in assay [3], the inhibition at 1 µM amounted to 38%, the inhibition at 3 µM amounted to 91% and the inhibition at 10 µM was determined as 100%.

In the case of `CC1(C)N=C(c2cccnc2)c2cc(Br)ccc2O1` [Compound 98], in assay [1], the inhibition at 1 µM is -4% and the inhibition at 3 µM is -6%.

Regarding `COc1ccc[n+]([O-])c1C1=NC(C)(C)Oc2cc(Cl)c(Br)cc21` [Compound 126, 2-(6-bromo-7-chloro-2,2-dimethyl-2H-1,3-benzoxazin-4-yl)-3-methoxypyridine N-oxide], in assay [2], the inhibition in vivo at 1 mg/kg was 49%.

With `COc1ccc[n+]([O-])c1C1=NC(C)(C)Oc2ccc(C(F)(F)F)cc21` [Compound 118, 2-(6-trifluoromethyl-2,2-dimethyl-2H-1,3-benzoxazin-4-yl)-3-methoxypyridineN-oxide], the inhibition in vivo at 1 mg/kg in assay [2] is 43%.

Consider `CC1(C)N=C(c2cccc[n+]2[O-])c2cc(C(F)(F)C(F)(F)F)ccc2O1` [Compound 77, 2-(6-pentafluoroethyl-2,2-dimethyl-2H-1,3-benzoxazin-4-yl)pyridine N-oxide], for which, in assay [1], the inhibition at 3 µM was 3% and the inhibition at 10 µM amounted to 10%. Also, the inhibition in vivo at 1 mg/kg in assay [2] is 25%. Further, in assay [3], the inhibition at 3 µM turned out to be 45% and the inhibition at 10 µM is 98%.

Take `CC1(C)N=C(c2cccc[n+]2[O-])c2cc(C#N)c(Cl)cc2O1` [Compound 91, 2-(7-chloro-6-cyano-2,2-dimethyl-2H-1,3-benzoxazin-4-yl)pyridine N-oxide]: the inhibition in vivo at 1 mg/kg in assay [2] was 39%.

As for `CC1(C)N=C(c2cccc[n+]2[O-])c2cc(C#N)ccc2O1` [Compound 20, 2-(6-cyano-2,2-dimethyl-2H-1,3-benzoxazin-4-yl)pyridine N-oxide], in assay [1], the inhibition at 3 µM was -4% and the inhibition at 10 µM is -2%. Besides, the inhibition in vivo at 1 mg/kg in assay [2] worked out at 39%. Moreover, in assay [3], the inhibition at 3 µM was determined as 35% and the inhibition at 10 µM turned out to be 81%.

For the molecule `CC1(C)N=C(c2cccc[n+]2[O-])c2cc(Cl)ccc2O1` [Compound 24, 2-(6-chloro-2,2-dimethyl-2H-1,3-benzoxazin-4-yl)pyridine N-oxide], the inhibition at 10 µM in assay [1] was -11%; in assay [3], 94%. In addition, the inhibition in vivo at 1 mg/kg in assay [2] came to 38%. Further, in assay [3], the inhibition at 3 µM is 76%.

With `CC1(C)N=C(c2c(O)ccc[n+]2[O-])c2cc(Br)ccc2O1` [Compound 143, 2-(6-bromo-2,2-dimethyl-2H-1,3-benzoxadin-4-yl)-3-hydroxypyridine N-oxide], the inhibition in vivo at 1 mg/kg in assay [2] was 54%.

As to `Cc1cc2c(cc1[N+](=O)[O-])C(c1cccc[n+]1[O-])=NC(C)(C)O2` [Compound 49, 2-(2,2,7-trimethyl-6-nitro-2H-1,3-benzoxazin-4-yl)pyridine N-oxide], in assay [1], the inhibition at 1 µM was -7%, the inhibition at 3 µM is -6% and the inhibition at 10 µM is -3%. In assay [3], the inhibition at 1 µM is 28%, the inhibition at 3 µM was determined as 77% and the inhibition at 10 µM was found to be 86%.

Turning to `COc1ccc[n+]([O-])c1C1=NC(C)(C)Oc2ccc(Br)cc21` [Compound 129, 2-(6-bromo-2,2-dimethyl-2H-1,3-benzoxazin-4-yl)-3-methoxypyridine N-oxide], the inhibition in vivo at 1 mg/kg in assay [2] is 55%.

On to `CCOc1ccc[n+]([O-])c1C1=NC(C)(C)Oc2ccc(Br)cc21` [Compound 119, 2-(6-bromo-2,2-dimethyl-2H-1,3-benzoxazin-4-yl)-3-ethoxypyridine N-oxide], for which the inhibition in vivo at 1 mg/kg in assay [2] came out at 61%.

With `CC1(C)N=C(c2cccc[n+]2[O-])c2cc(Cl)c(Cl)cc2O1` [Compound 79, 2-(6,7-dichloro-2,2-dimethyl-2H-1,3-benzoxazin-4-yl)pyridine N-oxide], in assay [1], the inhibition at 1 µM was -5%, the inhibition at 3 µM was -1% and the inhibition at 10 µM is 3%. For the same molecule, the inhibition in vivo at 1 mg/kg in assay [2] worked out at 36%. In assay [3], the inhibition at 1 µM was 24%, the inhibition at 3 µM stood at 57% and the inhibition at 10 µM is 65%.

`CC1(C)N=C(c2cccc[n+]2[O-])c2cc(OC(F)(F)F)ccc2O1` [Compound 69, 2-(6-trifluoromethoxy-2,2-dimethyl-2H-1,3-benzoxazin-4-yl)pyridine N-oxide]: in assay [1], the inhibition at 3 µM is -1% and the inhibition at 10 µM is 2%. Further, in assay [2], the inhibition in vivo at 1 mg/kg came to 44%. Moreover, in assay [3], the inhibition at 3 µM was 45% and the inhibition at 10 µM amounted to 81%.

For `Cc1cc2c(cc1C#N)C(c1cccc[n+]1[O-])=NC(C)(C)O2` [Compound 65, 2-(6-cyano-2,2,7-trimethyl-2H-1,3-benzoxazin-4-yl)pyridine N-oxide], the figures for the inhibition at 3 µM in assay [1] and in assay [3] were -2% and 48%, respectively. Also, the inhibition at 10 µM in assay [1] was found to be 0%; in assay [3], 74%.

`CCOc1ccc[n+]([O-])c1C1=NC(C)(C)Oc2cc(Cl)c(Br)cc21` [Compound 117, 2-(6-bromo-7-chloro-2,2-dimethyl-2H-1,3-benzoxazin-4-yl)-3-ethoxypyridine N-oxide]: in assay [2], the inhibition in vivo at 1 mg/kg turned out to be 54%.

As to `CC1(C)N=C(c2cccc[n+]2[O-])c2cc(Br)c(Cl)cc2O1` [Compound 89, 2-(6-bromo-7-chloro-2,2-dimethyl-2H-1,3-benzoxazin-4-yl)pyridine 1-oxide], in assay [1], the inhibition at 1 µM was -11%, the inhibition at 3 µM is -8% and the inhibition at 10 µM was -3%. In addition, the inhibition in vivo at 1 mg/kg in assay [2] was found to be 33%. Besides, in assay [3], the inhibition at 1 µM came out at 59%, the inhibition at 3 µM was 67% and the inhibition at 10 µM stood at 71%.

Take `Cc1cc2c(cc1Br)C(c1cccc[n+]1[O-])=NC(C)(C)O2` [Compound 47, 2-(6-bromo-2,2,7-trimethyl-2H-1,3-benzoxazin-4-yl)pyridine N-oxide]: the results for the inhibition at 1 µM in assay [1] and in assay [3] were -1% and 72%, respectively. The inhibition at 3 µM in assay [1] turned out to be 2%; in assay [3] it was 100%.

With `COc1ccc[n+]([O-])c1C1=NC(C)(C)Oc2ccc(C#N)cc21` [Compound 125, 2-(6-cyano-2,2-dimethyl-2H-1,3-benzoxazin-4-yl)-3-methoxypyridine N-oxide], the inhibition in vivo at 1 mg/kg in assay [2] came out at 23%.

On to `CCOc1ccc[n+]([O-])c1C1=NC(C)(C)Oc2ccc(C#N)cc21` [Compound 38, 2-(6-cyano-2,2-dimethyl-2H-1,3-benzoxazin-4-yl)-3-ethoxypyridine N-oxide], for which, in assay [2], the inhibition in vivo at 1 mg/kg amounted to 58%.

Consider `C#Cc1ccc2c(c1)C(c1cccc[n+]1[O-])=NC(C)(C)O2` [Compound 53, 2-(6-ethynyl-2,2-dimethyl-2H-1,3-benzoxazin-4-yl)pyridine N-oxide], for which the inhibition at 10 µM in assay [1] was -4%; in assay [3], 89%.

As to `CC1(C)N=C(c2cccc[n+]2[O-])c2cc(Br)c(F)cc2O1` [Compound 95, 2-(6-bromo-7-fluoro-2,2-dimethyl-2H-1,3-benzoxazin-4-yl)pyridine N-oxide], the inhibition in vivo at 1 mg/kg in assay [2] came to 55%.

For `CC(=O)c1ccc2c(c1)C(c1cccc[n+]1[O-])=NC(C)(C)O2` [Compound 56, 2-(6-acetyl-2,2-dimethyl-2H-1,3-benzoxazin-4-yl)pyridine N-oxide], the inhibition in vivo at 1 mg/kg in assay [2] came out at 22%.

For `CCOc1ccc[n+]([O-])c1C1=NC(C)(C)Oc2ccc(C(F)(F)F)cc21` [Compound 124, 3-ethoxy-2-(6-trifluoromethyl-2,2-dimethyl-2H-1,3-benzoxazin-4-yl)pyridine N-oxide], in assay [2], the inhibition in vivo at 1 mg/kg is 48%.

With `CC1(C)N=C(c2cccc[n+]2[O-])c2cc(Br)c(Br)cc2O1` [Compound 93, 2-(6,7-dibromo-2,2-dimethyl-2H-1,3-benzoxazin-4-yl)pyridine N-oxide], in assay [2], the inhibition in vivo at 1 mg/kg stood at 22%. In addition, in assay [3], the inhibition at 1 µM was determined as 52% and the inhibition at 3 µM is 71%.
